{"source": "patent US20230338363A1", "about": "“COMBINATION CHEMO-IMMUNOTHERAPY FOR PANCREATIC CANCER USING THE IMMUNOGENIC EFFECTS OF AN IRINOTECAN SILICASOME NANOCARRIER PLUS ANTI-PD-1” (The Regents of the University of California, priority 2020, published 2023)", "key": {"KPC tumor": {"test_system": "KPC tumor", "test": "Vaccination experiment with dying chemo-treated KPC cells", "format": "in vivo, mouse", "protocol": "The vaccination schedule is highlighted in FIG. 2, panel C. Eight million KPC cells were seeded in a tissue culture dish. After cellular attachment, IRIN (300 µM or OX (500 µM were added for 24 h. Cells were collected and washed before resuspended in 0.8 mL cold PBS. For vaccination, each mouse received subcutaneous (SC) injection of a 100 µL suspension of chemo-treated cells in the right flank. Control animals received SC injection with 0.1 mL PBS. The vaccination was repeated after 7 days. Fourteen days after the 1st injection, the animals received SC injection of normal KPC cells (1 million cells in 0.1 mL PBS) in the contralateral (left) flank. Tumor growth was measured by a digital caliper every 2-3 days, and the tumor volume calculated according to the formula: length × width^2 /2. Animals were sacrificed on day 26 and the tumors were collected, weighed and fixed in 10% formalin, followed by paraffin embedding and sectioning to derive to 4 µm thick slices for IHC analysis. Primary antibodies to CD8 (#14-0808-82) and FoxP3 (#13-5773-82) were purchased from ThermoFisher. IHC staining was performed in the UCLA Translational Pathology Core Laboratory (TPCL). The slides were scanned and images assessed by using Aperio ImageScope software (Leica)."}, "[1]": {"test": "pKa and % protonated drug (Henderson-Hasselbalch equation)", "format": "physicochemical", "protocol": "FIG. 9, panels A-D, illustrates a dose- and time-dependent study on IRIN-induced lysosomal alkalization effect in KPC cells. Panel A) Dose-dependence. KPC cells were treated with indicated free IRIN dose for 24 hours, followed by DND 99 and Hoechst dye co-staining, similar to FIG. 1, panel C. We were able to discern a major signal drop at 20 µM. IRIN accumulation in the KPC cells is indicated by white arrows. Panel B) Time-dependence. KPC cells were treated using 300 µM free IRIN for indicated time period, followed by DND 99/Hoechst co-staining, similar to panel A. We were able to observe a major DND 99 signal drop as early as 1 h post incubation. Quantification of DND 99 fluorescence intensity in panels A and B higher presented in FIG. 1, panel D. Panel C) Similar to the experiment described in FIG. 1, panel C, KPC cells were exposed to IRIN (300 µM) or chloroquine (CQ, 32 µM) for 24 h. The disappearance of the red fluorescence staining in the acidifying organellar environment in IRIN- and CQ-treated cells is as a result of the alkalization effect of these weak-base molecules. Bars are 10 µm. Panel D) The Henderson-Hasselbalch (H—H) equation allows calculation of % protonated drug at different pH values. Although 83.3% of IRIN molecules are protonated at pH 7.4, the equilibrium shifts to ~99% of the molecules at a lysosomal relevant pH ~4.5-5.5. […]"}, "KPC cells": {"test_system": "KPC cells", "test": "ER stress: CHOP and cleaved caspase-3 western blotting, total ROS, intracellular Ca2+ flux", "format": "cell-based, mouse", "details": "24 h", "protocol": "Intracellular ROS production was determined by a fluorescence-based ROS Kit (Abcam, ab186027) in KPC cells. This assay measures total ROS species according to vendor’s instructions. This assay is frequently used in cell biology to show the contribution of ROS in the context of ER stress and autophagy^3. Briefly, KPC cells were treated with IRIN (300 µM), OX (500 µM) or TUN (10 µM) for 24 h. Images were captured using a fluorescence microscope. Signal intensity was quantified by Image J software. At least three representative images were analyzed for each treatment. Data represents mean ± SD, n=3. *p<0.05, ***p<0.001, compared to PBS group (1-way ANOVA followed by a Tukey’s test). Bar is 50 µm.\nIntracellular Ca^2+ flux was assessed by a Fluo 4 AM assay in KPC cells. The cells were treated with IRIN (300 µM), OX (500 µM) or TUN (10 µM) for 24 h. Images were captured using a fluorescence microscope, followed by data analysis using the Image J software. At least three representative images were analyzed for each treatment. Data represents mean ± SD, n=3. **p<0.01, ***p<0.001, compared to PBS group (1-way ANOVA followed by a Tukey’s test). Bar is 50 µm.\nKPC cells were treated with IRIN silicasome at drug dose of 75 µM and 300 µM for 24 hours. PBS and empty silicasome (that is equivalent to drug dose of 300 µM) were included as control. Ca^2+ efflux (panel A) and total ROS (panel B) measurements were performed similar to FIGS. 14 and 15. Data represents mean ± SD, n=3. *p<0.05, **p<0.001, n.s., not significant (1-way ANOVA followed by a Tukey’s test). Panel C) In a separate experiment, KPC cells were seeded in to a 6-well plate, followed by the treatment using silicasome w/wo IRIN (300 µM) for 48 hours. ER marker, CHOP protein, was assayed by western blotting similar to FIG. 2, panel A\nWestern blotting was also used to detect the ER stress marker, CHOP, and Cleaved Caspase-3 (CC-3). In this case, KPC cells were treated with IRIN at the indicated concentrations (75- 600 µM) for 24 h. In a separate experiment, KPC cells were treated with IRIN (300 µM) and tunicamycin (10 µM) for 4 h. Primary antibodies were purchased from Cell Signaling Technology: β-actin (#3700), vinculin (#13901), CHOP (#2895), and Cleaved Caspase-3 (#9664)."}}, "note": "Counter-ions that a name gives are not always drawn."}
{"smiles": "CCc1c2c(nc3ccc(OC(=O)N4CCC(N5CCCCC5)CC4)cc13)-c1cc3c(c(=O)n1C2)COC(=O)[C@]3(O)CC", "note": "[IRIN, Irinotecan hydrochloride trihydrate]", "values": [{"measurement": "growth of tumor on the opposite flank vs PBS control", "setting": "KPC tumor; KPC cells treated with 300 µM IRIN or 500 µM OX, p <0.05", "value": "improved the shrinkage of the tumor on the opposite flank significantly"}, {"measurement": "tumor disappearance at harvesting", "setting": "KPC tumor; day 26", "value": "total tumor disappearance in one IRIN-treated animal"}, {"measurement": "CD8+ staining number (IHC)", "setting": "KPC tumor; harvested tumors, day 26", "value": "no significant increase"}, {"measurement": "CD8+/Treg cells ratio (IHC)", "setting": "KPC tumor; harvested tumors, day 26", "value": "significantly (p <0.01) increased"}, {"measurement": "FoxP3+ expression (IHC)", "setting": "KPC tumor; harvested tumors, day 26", "value": "significantly (p<0.01) decreased"}, {"measurement": "% of molecules protonated", "setting": "[1]; lysosomal relevant pH ~4.5-5.5", "value": "~ 99%"}, {"measurement": "% of molecules protonated", "setting": "[1]; pH 7.4", "value": 83.3, "unit": "%"}, {"measurement": "intracellular Ca2+ release (Fluo-4 AM assay)", "setting": "KPC cells; IRIN 300 µM", "value": "response profile similar to ROS production"}, {"measurement": "total ROS production", "setting": "KPC cells; IRIN 300 µM", "value": "robust generation ROS production"}, {"measurement": "CHOP expression (immunoblotting)", "setting": "KPC cells; IRIN 75-600 µM", "value": "sizable and dose-dependent increase in CHOP expression"}, {"measurement": "cleaved caspase-3 (CC-3) expression", "setting": "KPC cells; IRIN 75-600 µM", "value": "increased expression of cleaved caspase-3"}]}
